Test results: patent EP4656049A1, “A METHOD OF CONTROLLING INSECT PESTS” (UPL Mauritius Limited, priority 2024, dated 2025)

How the values were obtained:
Type in all cases: in vivo
[1] = test system: Empoasca vitis L2/L3 larvae; test: Lab trial in Petri dishes, leaf dipped in suspension; conditions: 75 ml/L
Description: Composition used for insect control: Suspension of Beauveria bassiana CNCM I-2961 spores prepared in Tween 80. Total CFU count = 1.0 x 10^8 CFU/ml Trial method: Lab trial in Petri dishes, 10 replicates, 5 L2&L3 larvae /replicate Leaf dipped in prepared suspension of treatment, let dried and set up on agar agar Incubation in climatic room at +20°C, dead adults removed and incubated for sporulation on cadaver: assessment at 18 DAA Assessment of mortality percentage of Empoasca vitis L2/L3 larvae at 7 DAA, 10DAA. Comparative control: Lambda cyhalothrin Table 5: Efficacy of Beauveria bassiana CNCM I-2961 on Empoasca vitis L2/L3 larvae

Empoasca vitis adults = test: as above; conditions: 75 ml/L
Description: Composition used for insect control: Suspension of Beauveria bassiana CNCM I-2960 spores prepared in Tween 80. Total CFU count = 8.2 x 10^7 CFU/ml Suspension of Beauveria bassiana CNCM I-2961 spores prepared in Tween 80. Total CFU count = 1.1 x 10^8 CFU/ml Trial method: Lab trial in Petri dishes, 5 replicates, 10 nymphs/replicate Leaf dipped in prepared suspension of treatment, let dried and set up on agar agar Incubation in climatic room at +20 C, dead adults removed and incubated for sporulation on cadaver: assessment at 15 DAA Assessment of mortality percentage of Empoasca vitis adults at 7 DAA, 11DAA. Comparative control: Lambda cyhalothrin Table 4: Efficacy of Beauveria bassiana CNCM I-2961 and Beauveria bassiana CNCM I-2960 on Empoasca vitis adults

Bactrocera oleae adults = test: Lab trial in plastic containers, flies dipped in test solution; conditions: 75 ml/L
Description: Composition used for insect control: Suspension of Beauveria bassiana CNCM I-2960 spores prepared in Tween 80. Total CFU count = 9.5 x 10^7 CFU/ml Trial method: Lab trial in plastic containers, 5 replicates, 10 adults /replicate Flies dipped in test solution Incubation in climatic room at +25°C Assessment of mortality percentage of Bactrocera oleae adults at 10DAT. DAT = Days after Treatment Comparative control: Lambda-cyhalothrin Table 7: Efficacy of Beauveria bassiana CNCM I-2960 on Bactrocera oleae adults

Halyomorpha halys eggs = test: Lab trial in Petri dishes, suspension sprayed on eggs; conditions: 0.5 ml/L
Description: Composition used for insect control: Suspension of Beauveria bassiana CNCM I-2960 spores prepared in Tween 80. Total CFU count = 1 x 10^6 CFU/ml, 1 x 10^7 CFU/ml and 1 x 10^8 CFU/ml Suspension of Beauveria bassiana CNCM I-2961 spores prepared in Tween 80. Total CFU count = 1 x 10^6 CFU/ml, 1 x 10^7 CFU/ml and 1 x 10^8 CFU/ml Trial method: Lab trial in Petri dishes, 5 replicates, 10 nymphs/replicate Suspension sprayed on eggs with equivalent volume of 1000 L/ha Incubation in climatic room at +25°C Assessment of mortality percentage of Halyomorpha halys Nymphs from treated eggs at 6 DAH, 9DAH, 13 DAH and 17 DAH. DAH = Days after hatching Comparative control: Acetamiprid Table 3: Efficacy of Beauveria bassiana CNCM-2961 and Beauveria bassiana CNCM I-2960 on Halyomorpha halys nymphs from treated eggs

Halyomorpha halys Nymphs = test: Lab trial in Petri dishes, suspension applied on nymphs + spray on beans; conditions: 0.5 ml/L
Description: Composition used for insect control: Suspension of Beauveria bassiana CNCM I-2960 spores prepared in Tween 80. Total CFU count = 1 x 10^8 CFU/ml Trial method: Lab trial in Petri dishes, 10 replicates, 5 nymphs/replicate Suspension applied on nymphs + spray on beans Incubation in climatic room at +25°C Assessment of mortality percentage of Halyomorpha halys Nymphs at 10 DAA Comparative control: Acetamiprid Table 2: Efficacy of Beauveria bassiana CNCM I-2960 on Halyomorpha halys Nymphs

[2] = test system: Dysaphis plantaginea adults; test: Lab trial in Petri dishes, leaf disc dipped in suspension; conditions: 0.14 kg/ha
Description: Composition used for insect control: Suspension of Beauveria bassiana CNCM I-2961 spores prepared in Tween 80. Total CFU count = 1.2 x 10^8 CFU/ml Trial method: Lab trial in Petri dishes, 10 replicates, 5 adults/replicate Leaf disc dipped in prepared suspension of treatment, let dried and set up on agar agar Incubation in climatic room at +21°C, dead adults removed and incubated for sporulation on cadaver: assessment at 17 DAA Assessment of mortality percentage of Dysaphis plantaginea adults at 8 DAA, 10 DAA DAA = Days after application Comparative control: Flonicamid Table 1: Efficacy of Beauveria bassiana CNCM I-2961 on Dysaphis plantaginea adults

CC1(C)[C@H](C(=O)O[C@H](C#N)c2cccc(Oc3ccccc3)c2)[C@@H]1/C=C(\Cl)C(F)(F)F (racemic) [Lambda cyhalothrin]
Mortality percentage of Empoasca vitis larvae at 7 DAA ([1]; 7 DAA): 65%
Mortality percentage of Empoasca vitis larvae at 10 DAA ([1]; 10 DAA): 91%
Mortality percentage of Empoasca vitis adults at 7 DAA (Empoasca vitis adults; 7 DAA): 83%
Mortality percentage of Empoasca vitis adults at 11 DAA (Empoasca vitis adults; 11 DAA): 100%
Mortality percentage of Bactrocera oleae adults at 10 DAA (Bactrocera oleae adults): 100%

C/C(=N\C#N)N(C)Cc1ccc(Cl)nc1 [Acetamiprid]
Mortality percentage of Halyomorpha halys nymphs from treated eggs at 6 DAH (Halyomorpha halys eggs; 6 DAH): 0%
Mortality percentage of Halyomorpha halys nymphs from treated eggs at 9 DAH (Halyomorpha halys eggs; 9 DAH): 7%
Mortality percentage of Halyomorpha halys nymphs from treated eggs at 13 DAH (Halyomorpha halys eggs; 13 DAH): 12%
Mortality percentage of Halyomorpha halys nymphs from treated eggs at 17 DAH (Halyomorpha halys eggs; 17 DAH): 22%
Mortality percentage of Halyomorpha halys Nymphs at 10 DAA (Halyomorpha halys Nymphs): 100%

N#CCNC(=O)c1cnccc1C(F)(F)F [Flonicamid]
Mortality percentage of Dysaphis plantaginea adults at 8 DAA ([2]; 8 DAA): 100%
Mortality percentage of Dysaphis plantaginea adults at 10 DAA ([2]; 10 DAA): 100%
